# Experimental data as given in paper PMC12543283, “TastepepAI: An artificial intelligence platform for taste peptide de novo design” (PLOS Computational Biology, 2025).
# Ends that are not written are not given here.
# Legend:
# [1] = system: human pancreatic ductal epithelial cells (HPNE)
# [2] = system: human bronchial epithelial cells (BEAS-2B)
# [3] = system: human umbilical vein endothelial cells (HUVEC)
# [4] = Electronic tongue analysis (Taste-Sensing System SA 402B); set-up: unit not given here; settings: reference solution 30 mM KCl + 0.3 mM tartaric acid as baseline, first measurement excluded; for Umami: sensor AAE; for Umami / Bitter / Sweet: detection threshold 0, room temperature; for Umami / Bitter / Sour / Salty: four replicates; for Sour: detection threshold -13, room temperature; for Salty: detection threshold -6, room temperature; for Sweet: measured five times
# Method in brief: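 Samples were tested at 0.1 and 1.0 mg/mL on an SA 402B e-tongue fitted with sourness, saltiness, bitterness, sweetness and umami sensors, with 30 mM KCl/0.3 mM tartaric acid as reference and baseline. Thresholds were −13 for sour, −6 for salty and 0 for the rest. Runs at room temperature: four replicates, five for sweetness, first reading discarded.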
# [5] = system: human embryonic kidney cells (HEK293T)
Substance,"Average cell viability, HPNE [1]","Cell viability, HPNE, Data1 [1]","Cell viability, HPNE, Data2 [1]","Cell viability, HPNE, Data3 [1]","Average cell viability, BEAS-2B [2]","Cell viability, BEAS-2B, Data1 [2]","Cell viability, BEAS-2B, Data2 [2]","Cell viability, BEAS-2B, Data3 [2]","Average cell viability, HUVEC [3]","Cell viability, HUVEC, Data1 [3]","Cell viability, HUVEC, Data2 [3]","Cell viability, HUVEC, Data3 [3]",Umami ([4]; peptide 0.1 mg/mL),Umami ([4]; peptide 1 mg/mL),"Bitter ([4]; sensor C00, peptide 0.1 mg/mL)","Bitter ([4]; sensor C00, peptide 1 mg/mL)","Sour ([4]; sensor CA0, peptide 0.1 mg/mL)","Sour ([4]; sensor CA0, peptide 1 mg/mL)","Salty ([4]; sensor CT0, peptide 0.1 mg/mL)","Salty ([4]; sensor CT0, peptide 1 mg/mL)",also measured
EQPLQA [TaPep21],98.70,92.25,87.35,116.51,98.84,92.62,108.57,95.31,102.16,96.59,98.43,111.44,0.99,-5.14,7.83,3.66,-1.59,12.04,-19.46,7.62,"Sweet ([4]; sensor GL1, peptide 0.1 mg/mL): 5.53; Sweet ([4]; sensor GL1, peptide 1 mg/mL): -10.15; Average cell viability, HEK293T [5]: 97.76; Cell viability, HEK293T, Data1 [5]: 94.35; Cell viability, HEK293T, Data2 [5]: 95.58; Cell viability, HEK293T, Data3 [5]: 103.34"
EDGPHGD [TaPep45],101.66,107.42,100.73,96.84,94.75,89.83,99.50,94.92,98.64,103.46,90.77,101.70,0.96,-5.11,7.77,4.03,-1.77,12.61,-19.03,9.35,"Sweet ([4]; sensor GL1, peptide 0.1 mg/mL): 4.54; Sweet ([4]; sensor GL1, peptide 1 mg/mL): -4.05; Average cell viability, HEK293T [5]: 97.35; Cell viability, HEK293T, Data1 [5]: 98.99; Cell viability, HEK293T, Data2 [5]: 96.25; Cell viability, HEK293T, Data3 [5]: 96.81"
LGGDL [TaPep58],94.58,94.94,87.85,100.93,99.93,103.89,90.43,105.48,99.81,89.41,103.78,106.25,2.07,-4.23,7.49,3.43,-4.24,10.37,-21.68,10.46,"Sweet ([4]; sensor GL1, peptide 0.1 mg/mL): 7.50; Sweet ([4]; sensor GL1, peptide 1 mg/mL): -6.69; Average cell viability, HEK293T [5]: 101.42; Cell viability, HEK293T, Data1 [5]: 99.84; Cell viability, HEK293T, Data2 [5]: 107.22; Cell viability, HEK293T, Data3 [5]: 97.19"
YQAENKH [TaPep14],98.70,93.34,103.13,99.63,116.78,112.46,118.94,118.94,95.42,102.42,90.29,93.56,3.07,-3.87,7.83,0.38,-6.58,9.86,-18.09,13.64,"Sweet ([4]; sensor GL1, peptide 0.1 mg/mL): 7.88; Sweet ([4]; sensor GL1, peptide 1 mg/mL): -4.10; Average cell viability, HEK293T [5]: 98.23; Cell viability, HEK293T, Data1 [5]: 95.02; Cell viability, HEK293T, Data2 [5]: 96.25; Cell viability, HEK293T, Data3 [5]: 103.44"
HGGDDLG [TaPep28],100.10,100.63,102.04,97.63,108.84,111.86,106.08,108.57,104.66,105.77,106.73,101.46,1.08,-5.39,7.58,4.00,-2.05,13.70,-21.08,11.23,"Sweet ([4]; sensor GL1, peptide 0.1 mg/mL): 3.25; Sweet ([4]; sensor GL1, peptide 1 mg/mL): -6.08; Average cell viability, HEK293T [5]: 97.67; Cell viability, HEK293T, Data1 [5]: 96.62; Cell viability, HEK293T, Data2 [5]: 99.75; Cell viability, HEK293T, Data3 [5]: 96.62"
DAELDK [TaPep34],103.89,99.83,96.64,115.21,99.04,114.56,90.63,91.92,96.25,90.61,95.80,102.34,0.43,-4.87,7.62,3.25,-0.52,15.34,-17.51,13.63,"Sweet ([4]; sensor GL1, peptide 0.1 mg/mL): 5.08; Sweet ([4]; sensor GL1, peptide 1 mg/mL): -6.74; Average cell viability, HEK293T [5]: 101.89; Cell viability, HEK293T, Data1 [5]: 98.04; Cell viability, HEK293T, Data2 [5]: 102.49; Cell viability, HEK293T, Data3 [5]: 105.14"
